Reference: US4619916A, “Tripeptide compounds containing pyroglutamic acid and tryptophan, process for their production and therapeutic applications” (Polifarma S.p.A., priority 1984, dated 1986)
Where a SMILES comes first, the peptide text is derived from it. [ ]: non-standard residue; d: D form. pGlu = O=C1CC[C@@H](C(=O)O)N1

Key:
[1] = tested on: female Swiss albino mice; assay: Analgesic activity, writhing test with 3% aqueous acetic acid; format: in vivo, mouse; details: for Analgesic activity (mean reduction of number of contorsions vs controls): 20 minute observation
Experimental: This activity was evaluated with the writhing test, using a 3% aqueous acetic acid solution as pain-causing agent, injected intraperitoneally (0.1 ml/10 g). The experiment was performed with 80 female Swiss albino mice weighing 18-24 g, fasting for three hours and divided into groups of 20 animals each: (1) controls, treated with 0.9% NaCl; (2) those treated with the test tripeptide (10 mg/kg intraperitoneally); (3) those treated with adenosine (2 mg/kg intraperitoneally); (4) those treated with the tripeptide (10 mg/kg intraperitoneally) and adenosine (2 mg/kg intraperitoneally). In groups 1 and 2 the substances were administered 40 minutes before the acetic acid; in group 3 the adenosine was administered 10 minutes before the acetic acid; in group 4 the adenosine was administered 30 minutes after the tripeptide and 10 minutes before the acetic acid. After the acetic acid innoculation, the animals were placed in groups of 5 in plastic cages, and observed for a 20 minute period. The number of contorsions the animals made during that period was recorded. Based on the mean reduction of the number of contorsions of the treated animals with respect to the controls, the analgesic action of the test substance was calculated.

[2] = tested on: Male CD Charles River rats; assay: Potentiation of the hypotensive effect of adenosine; format: in vivo, rat; details: for Effect on the hypotensive effect of adenosine: tripeptide 0.1 mg/kg in the vein, 15 minutes before adenosine (0.15 mg/kg in the vein)
Experimental: (§1) Male CD Charles River rats weighing 220-250 g were used, anesthetized with ethyl urethane (1.75 g/kg intraperitoneally). After incannulation of the trachea, the right carotid was isolated and connected by a cannula to a pressure measurement device. The isolated left carotid was used to record the flow by means of an electromagnetic flussimeter. Other parameters recorded were: dp/dt, ECG (electrocardiogram), BPM (beats per minute). All values were recorded on an 8 channel Hewlett Packard polygraph.
(§2) The tripeptides were dissolved in 0.9% NaCl and injected in the right femoral vein.
Any interference of synthesized peptides with the hemodynamic effects of adenosine would be shown using the method described. […] In this case the compound according to the invention was pGLU-GLU-TRP.

[3] = tested on: Male CD Charles River rats; assay: Hypotensive effect in anesthetized rats (carotid pressure after intravenous injection); format: in vivo, rat; details: dose of 2 mg/kg, injected in the right femoral vein, in 0.9% NaCl, urethane-anesthetized rats
Experimental: as §1, with “After” for “Male CD Charles River rats weighing 220-250 g were used, anesthetized with ethyl urethane (1.75 g/kg intraperitoneally). After”
as §2

| Structure (SMILES) | Δ on maximum (lowering of the maximum pressure) [3] [mm Hg] | Δ on minimum (lowering of the minimum pressure) [3] [mm Hg] | further results |
| --- | --- | --- | --- |
| Nc1ncnc2c1ncn2[C@@H]1O[C@H](CO)[C@@H](O)[C@H]1O [adenosine, reference compound] |  |  | Analgesic activity (mean reduction of number of contorsions vs controls) ([1]; adenosine 2 mg/kg intraperitoneally, 10 minutes before acetic acid): 20%; Hemodynamic effect of adenosine alone ([2]; 0.15 mg/kg in the vein): transient hypotensive effect |
| C[C@H](NC(=O)[C@@H]1CCC(=O)N1)C(=O)N[C@@H](Cc1c[nH]c2ccccc12)C(=O)O [pGLU--ALA--TRP, pGLU-ALA-TRP] ([pGlu]-Ala-Trp-OH) | 10 | 20 |  |
| N=C(N)NCCC[C@H](NC(=O)[C@@H]1CCC(=O)N1)C(=O)N[C@@H](Cc1c[nH]c2ccccc12)C(=O)O [pGLU--ARG--TRP, pGLU-ARG-TRP] ([pGlu]-Arg-Trp-OH) | 25 | 15 |  |
| NC(=O)C[C@H](NC(=O)[C@@H]1CCC(=O)N1)C(=O)N[C@@H](Cc1c[nH]c2ccccc12)C(=O)O [pGLU--ASN--TRP, pGLU-ASN-TRP] ([pGlu]-Asn-Trp-OH) | 35 | 20 | Analgesic activity of tripeptide together with adenosine ([1]; tripeptide 10 mg/kg i.p. plus adenosine 2 mg/kg i.p. given 30 minutes after the tripeptide and 10 minutes before acetic acid): additive effect; Analgesic activity (mean reduction of number of contorsions vs controls) ([1]; tripeptide 10 mg/kg intraperitoneally, 40 minutes before acetic acid): 25%; Effect on the hypotensive effect of adenosine [2]: potentiates and prolongs the hypotensive effect |
| O=C(O)C[C@H](NC(=O)[C@@H]1CCC(=O)N1)C(=O)N[C@@H](Cc1c[nH]c2ccccc12)C(=O)O [pGLU--ASP--TRP, pGLU-ASP-TRP] ([pGlu]-Asp-Trp-OH) | 10 | 10 |  |
| NC(=O)CC[C@H](NC(=O)[C@@H]1CCC(=O)N1)C(=O)N[C@@H](Cc1c[nH]c2ccccc12)C(=O)O [pGLU--GLN--TRP, pGLU-GLN-TRP] ([pGlu]-Gln-Trp-OH) | 20 | 10 |  |
| O=C(O)CC[C@H](NC(=O)[C@@H]1CCC(=O)N1)C(=O)N[C@@H](Cc1c[nH]c2ccccc12)C(=O)O [pGLU--GLU--TRP, pGLU-GLU-TRP] ([pGlu]-Glu-Trp-OH) | 20 | 10 | Effect on the hypotensive effect of adenosine [2]: potentiates and prolongs the hypotensive effect |
| O=C(CNC(=O)[C@@H]1CCC(=O)N1)N[C@@H](Cc1c[nH]c2ccccc12)C(=O)O [pGLU--GLY--TRP, p-GLU-GLY-TRP] ([pGlu]-Gly-Trp-OH) | 25 | 35 |  |
| CCOC(=O)[C@H](Cc1c[nH]c2ccccc12)NC(=O)[C@@H](NC(=O)[C@@H]1CCC(=O)N1)[C@@H](C)CC [pGLU--ILE--TRP--OEt] ([pGlu]-Ile-Trp-OEt) | 30 | 25 |  |
| CC(C)C[C@H](NC(=O)[C@@H]1CCC(=O)N1)C(=O)N[C@@H](Cc1c[nH]c2ccccc12)C(=O)O [pGLU--LEU--TRP, pGLU-LEU-TRP] ([pGlu]-Leu-Trp-OH) | 30 | 30 |  |
| CCOC(=O)[C@H](Cc1c[nH]c2ccccc12)NC(=O)[C@H](CC(C)C)NC(=O)[C@@H]1CCC(=O)N1 [pGLU--LEU--TRP--OEt, pGLU-LEU-TRP-OEt] ([pGlu]-Leu-Trp-OEt) | 30 | 20 |  |
| NCCCC[C@H](NC(=O)[C@@H]1CCC(=O)N1)C(=O)N[C@@H](Cc1c[nH]c2ccccc12)C(=O)O [pGLU--LYS--TRP, pGLU-LYS-TRP] ([pGlu]-Lys-Trp-OH) | 35 | 25 |  |
| O=C1CC[C@@H](C(=O)N[C@@H](CO)C(=O)N[C@@H](Cc2c[nH]c3ccccc23)C(=O)O)N1 [pGLU--SER--TRP, pGLU-SER-TRP] ([pGlu]-Ser-Trp-OH) | 45 | 35 |  |
